# Measured values: US11174518B2, “Method of classifying and diagnosing cancer” (Cedars-Sinai Medical Center, priority 2015, dated 2021)
# Tested on: circulating tumor cells (CTC) from patients with CRPC
# Assay: Enzalutamide resistance of patient CTCs assigned to PCS subtypes by the 37-gene classifier
# Format: in vivo, human
# Conditions: for Enzalutamide resistance / Enzalutamide resistance: proportion of CTCs from patients with enzalutamide-resistant tumors: patient CTCs
# Description: A random forest machine learning algorithm was employed to develop a diagnostic gene panel. For parameter estimation and training the model, we used the merged dataset. Initially, the model comprised of the 428 SEGs as a set of predictors and subtype label of the merged dataset was used as a response variable for model training. […] We then permuted the values for each gene across every sample and measured how much worse MSE became after the permutation. […] We analyzed single-cell RNA-seq data from 77 intact CTCs isolated from 13 patients (Miyamoto D T, Zheng […], Lee R J, Zhu H, Broderick K T, et al. RNA-Seq of single prostate CTCs implicates noncanonical Wnt signaling in antiandrogen resistance. Science 2015; 349:1351-6). Prior to the clustering analysis to investigate the expression patterns of these CTC data, the normalized read counts as read-per-million (RPM) mapped reads were transformed on a log 2 scale for each gene.
compound,measurement,setting,value
"CNC(=O)c1ccc(N2C(=S)N(c3ccc(C#N)c(C(F)(F)F)c3)C(=O)C2(C)C)cc1F [Enzalutamide, enzalutamide]",OR for CTCs from patients with radiographic and/or PSA progression during enzalutamide therapy,"GROUP II CTCs (high expression of PCS1-enriched genes), 5 of the 7 CTCs, 95% confidence interval 0.49-6.06",1.74
same,Enzalutamide resistance,PCS1 subtype,Yes
same,Enzalutamide resistance: proportion of CTCs from patients with enzalutamide-resistant tumors,PCS1 subtype (7 CTCs out of 12),58%
same,Enzalutamide resistance,PCS2 subtype,No
same,Enzalutamide resistance: proportion of CTCs from patients with enzalutamide-resistant tumors,PCS2 subtype (5 CTCs out of 65),8%
